The values that follow are results of earlier work, collected in patent US9993445B1, “Oral solution comprising atomoxetine hydrochloride and methods thereof” (TAHO Pharmaceuticals Ltd., priority 2016, dated 2018).

For the data set the following is noted: room temperature.

Where a name gives a salt, the structure may show the parent alone.

For `CNCCC(Oc1ccccc1C)c1ccccc1` (single isomer, unassigned; (-)) [Atomoxetine hydrochloride, (−)-N-methyl-3-phenyl-3 (o-tolyloxy) propylamine], the soluble in water is 27.8 mg/mL.
